One test has as its system A. baumannii 0301. As to conditions: XDR A. baumannii 0301, mcr-1 −; ref CDC & FDA Antibiotic Resistant Isolate Bank; cited from earlier work.
A further test has as its system A. baumannii 0295. Particulars: XDR A. baumannii 0295, mcr-1 −; ref CDC & FDA Antibiotic Resistant Isolate Bank; cited from earlier work.
Another test has as its system A. baumannii 0287. Particulars: XDR A. baumannii 0287, mcr-1 −; ref CDC & FDA Antibiotic Resistant Isolate Bank; cited from earlier work.
In a further test the test system is A. baumannii 0282. As to conditions: XDR A. baumannii 0282, mcr-1 −; ref CDC & FDA Antibiotic Resistant Isolate Bank; cited from earlier work.
Another test deals with A. baumannii 0286. Particulars: XDR A. baumannii 0286, mcr-1 −; ref CDC & FDA Antibiotic Resistant Isolate Bank; cited from earlier work.
For a further test, the system named is A. baumannii 0296. As to conditions: XDR A. baumannii 0296, mcr-1 −; ref CDC & FDA Antibiotic Resistant Isolate Bank; cited from earlier work.
Test [1] concerns A. baumannii SM1536 (pMQ124xlab1-mcr-1). The experiment in a line: MIC, microbial susceptibility assay. It counts as cell-based, Acinetobacter baumannii. As to conditions: A. baumannii SM1536 upon introduction of mcr-1.
Test [2] relates to A. baumannii 0301 (mcr-1). The experiment in a line: MIC, microbial susceptibility assay. The format is cell-based, Acinetobacter baumannii. As to conditions: A. baumannii 0301 upon introduction of mcr-1.

What is called MIC is the least concentration at which growth counts as inhibited.

Converted amounts (≈) assume the structure as drawn. Positions of bridges follow the written chain, without caps; N, C: chain ends. Non-standard residues stand in square brackets, D forms with d. Residues, ends and D or L forms follow the SMILES beside them. *: point of attachment. Octanoyl(3-OH) = CCCCCC(O)CC(=O)*; Decanoyl = CCCCCCCCCC(=O)*; Nonanoyl = CCCCCCCCC(=O)*; Heptanoyl = CCCCCCC(=O)*; Dab = NCC[C@H](N)C(=O)O

On to `CO/N=C(\C(=O)N[C@@H]1C(=O)N2C(C(=O)O)=C(COC(C)=O)CS[C@H]12)c1csc(N)n1` [Cefotaxime], for which the MIC in the test with A. baumannii 0301, in the test on A. baumannii 0295, in the test with A. baumannii 0287, in the test with A. baumannii 0282, in the test on A. baumannii 0286 and in the test on A. baumannii 0296 was over 64 µg/mL each time.
`CN(C)c1cc(NC(=O)CNC(C)(C)C)c(O)c2c1C[C@H]1C[C@H]3[C@H](N(C)C)C(O)=C(C(N)=O)C(=O)[C@@]3(O)C(O)=C1C2=O` [Tigecycline]: the minimal inhibitory concentration (MIC) with A. baumannii 0301 and in the test on A. baumannii 0295 was 4 µg/mL (≈ 6.83 µM) in each case.
Regarding `CN(C)c1ccc(O)c2c1C[C@H]1C[C@H]3[C@H](N(C)C)C(O)=C(C(N)=O)C(=O)[C@@]3(O)C(O)=C1C2=O` [Minocycline], the MIC was 16 µg/mL (≈ 35 µM) in the test on A. baumannii 0301; 16 µg/mL (≈ 35 µM) with A. baumannii 0295; “<=4 μg/ml” in the test with A. baumannii 0287; 8 µg/mL (≈ 17.5 µM) in the test with A. baumannii 0282; 8 µg/mL (≈ 17.5 µM) with A. baumannii 0286; “<=4 μg/ml” with A. baumannii 0296.
Regarding `O=C(O)c1cn(C2CC2)c2cc(N3CCNCC3)c(F)cc2c1=O` [Ciprofloxacin], the MIC in the test on A. baumannii 0301, in the test on A. baumannii 0295, with A. baumannii 0287, with A. baumannii 0282, in the test on A. baumannii 0286 and in the test with A. baumannii 0296 was over 8 µg/mL in each case.
Take `CNC(C)C1CCC(N)C(OC2C(N)CC(N)C(OC3OCC(C)(O)C(NC)C3O)C2O)O1` (stereo not drawn) [Gentamicin]: the MIC is 8 µg/mL (≈ 16.8 µM) with A. baumannii 0301; 4 µg/mL (≈ 8.38 µM) in the test on A. baumannii 0295; 4 µg/mL (≈ 8.38 µM) in the test with A. baumannii 0287; over 16 µg/mL in the test with A. baumannii 0282; over 16 µg/mL in the test with A. baumannii 0286; over 16 µg/mL in the test on A. baumannii 0296.
For `CO/N=C(\C(=O)N[C@@H]1C(=O)N2C(C(=O)[O-])=C(C[N+]3(C)CCCC3)CS[C@H]12)c1csc(N)n1` [Cefepime], the MIC with A. baumannii 0301 is over 32 µg/mL; in the test on A. baumannii 0295 it was over 32 µg/mL; in the test with A. baumannii 0287, 32 µg/mL (≈ 66.6 µM); in the test on A. baumannii 0282 it was over 32 µg/mL; in the test on A. baumannii 0286, 32 µg/mL (≈ 66.6 µM); in the test on A. baumannii 0296, over 32 µg/mL.
Turning to `CC(C)(O/N=C(\C(=O)N[C@@H]1C(=O)N2C(C(=O)[O-])=C(C[n+]3ccccc3)CS[C@H]12)c1csc(N)n1)C(=O)O` [Ceftazidime], the MIC in the test on A. baumannii 0301 was 128 µg/mL (≈ 234 µM); in the test on A. baumannii 0295 it was over 128 µg/mL; in the test on A. baumannii 0287, 128 µg/mL (≈ 234 µM); in the test on A. baumannii 0282 it was over 128 µg/mL; with A. baumannii 0286, 128 µg/mL (≈ 234 µM); in the test on A. baumannii 0296, over 128 µg/mL.
`NCC[C@H](O)C(=O)N[C@@H]1C[C@H](N)[C@@H](O[C@H]2O[C@H](CN)[C@@H](O)[C@H](O)[C@H]2O)[C@H](O)[C@H]1O[C@H]1O[C@H](CO)[C@@H](O)[C@H](N)[C@H]1O` [Amikacin]: the MIC with A. baumannii 0301 is 64 µg/mL (≈ 109 µM); in the test with A. baumannii 0295, 4 µg/mL (≈ 6.83 µM); with A. baumannii 0287, 32 µg/mL (≈ 54.6 µM); in the test with A. baumannii 0282, over 64 µg/mL; in the test with A. baumannii 0286, over 64 µg/mL; in the test with A. baumannii 0296 it was over 64 µg/mL.
Regarding `CCN1CCN(C(=O)N[C@@H](C(=O)N[C@@H]2C(=O)N3[C@@H]2SC(C)(C)[C@@H]3C(=O)O)c2ccccc2)C(=O)C1=O` [Piperacillin], the MIC in the test with A. baumannii 0301, in the test on A. baumannii 0295, in the test with A. baumannii 0287, in the test on A. baumannii 0282, in the test on A. baumannii 0286 and in the test with A. baumannii 0296 was over 128 µg/mL in each case.
`CCCCCC(O)CC(=O)N[C@@H](CCN)C(=O)N[C@H](C(=O)N[C@H](CO)C(=O)N[C@H]1CCNC(=O)[C@H](CC(C)C)NC(=O)[C@H](CCN)NC(=O)[C@H](CCN)NC(=O)[C@H]([C@@H](C)CC)NC(=O)[C@@H](CC(C)C)NC(=O)[C@H](CCN)NC1=O)[C@@H](C)O` (stereo partly drawn) [L5] ({Octanoyl(3-OH)}-[Dab]T[dS][Dab][Dab][dL]I[Dab][Dab]L; lactam 4-C; N-terminus assumed): the “Fold increase in MIC” value in test [1] amounted to 4; in test [2] it was 2.
On to `C[C@H]1COc2c(N3CCN(C)CC3)c(F)cc3c(=O)c(C(=O)O)cn1c23` [Levofloxacin], for which the MIC in the test on A. baumannii 0301 was over 8 µg/mL; with A. baumannii 0295, over 8 µg/mL; in the test on A. baumannii 0287, 8 µg/mL (≈ 22.1 µM); in the test on A. baumannii 0282, 8 µg/mL (≈ 22.1 µM); with A. baumannii 0286, 8 µg/mL (≈ 22.1 µM); in the test on A. baumannii 0296, over 8 µg/mL.
On to `C[C@@H](O)[C@H]1C(=O)N2C(C(=O)O)=C(S[C@@H]3CN[C@H](CNS(N)(=O)=O)C3)[C@H](C)[C@H]12` [Doripenem], for which the MIC with A. baumannii 0301, in the test on A. baumannii 0295, with A. baumannii 0287, in the test with A. baumannii 0282, with A. baumannii 0286 and in the test with A. baumannii 0296 was over 8 µg/mL in each case.
On to `CCCCCCC(=O)N[C@@H](CCN)C(=O)N[C@H](C(=O)N[C@H](CO)C(=O)N[C@H]1CCNC(=O)[C@H](CC(C)C)NC(=O)[C@H](CCN)NC(=O)[C@H](CCN)NC(=O)[C@H]([C@@H](C)CC)NC(=O)[C@@H](CC(C)C)NC(=O)[C@H](CCN)NC1=O)[C@@H](C)O` [L1] (Heptanoyl-[Dab]T[dS][Dab][Dab][dL]I[Dab][Dab]L; lactam 4-C; N-terminus assumed), for which the figures for the “Fold increase in MIC” value in test [1] and in test [2] were 8 and 2, respectively.
The corresponding values for `CCCCCCCCC(=O)N[C@@H](CCN)C(=O)N[C@H](C(=O)N[C@H](CO)C(=O)N[C@H]1CCNC(=O)[C@H](CC(C)C)NC(=O)[C@H](CCN)NC(=O)[C@H](CCN)NC(=O)[C@H]([C@@H](C)CC)NC(=O)[C@@H](CC(C)C)NC(=O)[C@H](CCN)NC1=O)[C@@H](C)O` [L3] (Nonanoyl-[Dab]T[dS][Dab][Dab][dL]I[Dab][Dab]L; lactam 4-C; N-terminus assumed) are 4 and 2.
Consider `CCCCCCCCCC(=O)N[C@@H](CCN)C(=O)N[C@H](C(=O)N[C@H](CO)C(=O)N[C@H]1CCNC(=O)[C@H](CC(C)C)NC(=O)[C@H](CCN)NC(=O)[C@H](CCN)NC(=O)[C@H]([C@@H](C)CC)NC(=O)[C@@H](CC(C)C)NC(=O)[C@H](CCN)NC1=O)[C@@H](C)O` [L4] (Decanoyl-[Dab]T[dS][Dab][Dab][dL]I[Dab][Dab]L; lactam 4-C; N-terminus assumed), for which the figures for the “Fold increase in MIC” value in test [1] and in test [2] were 8 and 1, respectively.
Turning to `C[C@@H](O)[C@H]1C(=O)N2C(C(=O)O)=C(SCCN=CN)C[C@H]12` [Imipenem], the MIC in the test with A. baumannii 0301 is over 64 µg/mL; in the test on A. baumannii 0295, over 64 µg/mL; in the test on A. baumannii 0287, 64 µg/mL (≈ 214 µM); with A. baumannii 0282, 64 µg/mL (≈ 214 µM); in the test with A. baumannii 0286, over 64 µg/mL; in the test with A. baumannii 0296 it was 64 µg/mL (≈ 214 µM).
Regarding `CO/N=C(\C(=O)N[C@@H]1C(=O)N2C(C(=O)O)=C(CSc3nc(=O)c(=O)[nH]n3C)CS[C@H]12)c1csc(N)n1` [Ceftriaxone], the MIC in the test on A. baumannii 0301, with A. baumannii 0295, with A. baumannii 0287, in the test with A. baumannii 0282, in the test with A. baumannii 0286 and with A. baumannii 0296 was over 32 µg/mL each time.
For the compound `CC1(C)S[C@@H]2[C@H](NC(=O)[C@H](N)c3ccccc3)C(=O)N2[C@H]1C(=O)O` [Ampicillin], the MIC in the test with A. baumannii 0301 is over 32 µg/mL; in the test with A. baumannii 0295, over 32 µg/mL; in the test with A. baumannii 0287, over 32 µg/mL; in the test on A. baumannii 0282, over 32 µg/mL; in the test on A. baumannii 0286 it was 32 µg/mL (≈ 91.6 µM); in the test on A. baumannii 0296, over 32 µg/mL.
As to `COc1cc(Cc2cnc(N)nc2N)cc(OC)c1OC` [Trimethoprim], the MIC in the test with A. baumannii 0301, with A. baumannii 0295, with A. baumannii 0287, with A. baumannii 0282, in the test with A. baumannii 0286 and with A. baumannii 0296 was over 8 µg/mL in each case.
For `C[C@@H](O)[C@H]1C(=O)N2C(C(=O)O)=C(S[C@@H]3CN[C@H](C(=O)N(C)C)C3)[C@H](C)[C@H]12` [Meropenem], the MIC in the test on A. baumannii 0301, in the test on A. baumannii 0295, with A. baumannii 0287, in the test on A. baumannii 0282, in the test on A. baumannii 0286 and with A. baumannii 0296 was over 8 µg/mL each time.
For `CN(C)[C@@H]1C(O)=C(C(N)=O)C(=O)[C@@]2(O)C(O)=C3C(=O)c4c(O)cccc4[C@@](C)(O)[C@H]3C[C@@H]12` [Tetracycline], the MIC was over 32 µg/mL in the test on A. baumannii 0301; over 32 µg/mL with A. baumannii 0295; over 32 µg/mL in the test with A. baumannii 0287; over 32 µg/mL in the test on A. baumannii 0282; over 32 µg/mL in the test with A. baumannii 0286; 32 µg/mL (≈ 72 µM) in the test with A. baumannii 0296.
For `NC[C@H]1O[C@H](O[C@H]2[C@H](O)[C@@H](O[C@H]3O[C@H](CO)[C@@H](O)[C@H](N)[C@H]3O)[C@H](N)C[C@@H]2N)[C@H](N)C[C@@H]1O` [Tobramycin], the MIC in the test on A. baumannii 0301, in the test on A. baumannii 0287, in the test with A. baumannii 0282, in the test on A. baumannii 0286 and in the test on A. baumannii 0296 was over 16 µg/mL throughout.

(Values after article PMC10321319 (Nature, 2022).)
